Measured values reported in paper PMC3508689 (Biochemistry, 2011).

Biological target: T1, human PPM1D catalytic domain (residues 1–420) (Homo sapiens, UniProt O15297)
T1 sequence (O15297 1-420): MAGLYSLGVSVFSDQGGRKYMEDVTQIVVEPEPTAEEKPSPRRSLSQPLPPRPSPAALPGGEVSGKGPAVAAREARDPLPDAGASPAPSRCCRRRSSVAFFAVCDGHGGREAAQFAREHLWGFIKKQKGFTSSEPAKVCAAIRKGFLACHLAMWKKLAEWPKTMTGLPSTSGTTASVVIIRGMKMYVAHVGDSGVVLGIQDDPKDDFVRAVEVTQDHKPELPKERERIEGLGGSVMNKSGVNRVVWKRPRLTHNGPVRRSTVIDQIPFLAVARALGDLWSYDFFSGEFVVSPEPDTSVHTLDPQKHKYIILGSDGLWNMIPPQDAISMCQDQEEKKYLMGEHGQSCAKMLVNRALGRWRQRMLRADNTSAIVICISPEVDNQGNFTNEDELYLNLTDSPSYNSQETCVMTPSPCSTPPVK
Type: biochemical
Settings: cyclic peptide 25 μM, ATM substrate peptide 30 μM

| inhibitory activity against PPM1D (in words) | Substance |
| --- | --- |
| no significant inhibitory activity | cyclo[(D-Asp)-(D-Asp)-(D-pY)-(D-I)-(D-pS)-(D-F)-C]-amide [peptide 47] |
| did not show inhibitory activity | cyclo(F-F2Pab-I-pY-DDC)-amide [peptide 44] |
